Source: publication PMC9736374, “Design, Synthesis and Antimicrobial Properties of New Tetracyclic Quinobenzothiazine Derivatives” (International Journal of Molecular Sciences, 2022)
Converted amounts (≈) assume the structure as drawn.

Tests used:
[1] = test system: Staphylococcus aureus ATCC 29213; assay: MIC, microtitration broth method; format: cell-based; conditions: ATCC29213; SA = Staphylococcus aureus ATCC 29213; 24 h, 37 °C
[2] = test system: Enterococcus faecalis ATCC 29212; assay: MIC, microtitration broth method; format: cell-based; conditions: ATCC29212; EF = Enterococcus faecalis; 24 h, 37 °C
[3] = test system: Staphylococcus aureus ATCC 29213; assay: MBC, agar aliquot subculture method; format: cell-based; conditions: ATCC29213; SA = Staphylococcus aureus ATCC 29213
[4] = test system: Enterococcus faecalis ATCC 29212; assay: MBC, agar aliquot subculture method; format: cell-based; conditions: ATCC29212; EF = Enterococcus faecalis
[5] = test system: S. aureus ATCC 29213 respiratory activity; assay: MTT assay of bacterial respiration; format: cell-based, Staphylococcus aureus; conditions: for Conc.: corresponding multiple of MBC with at least 70% inhibition of respiratory activity / Conc.: lowest multiple of MIC with at least 70% inhibition of respiratory activity: S. aureus ATCC 29213, MTT, 24 h
[6] = test system: methicillin-resistant S. aureus SA 3202 (MRSA1); assay: MIC, microtitration broth method; format: cell-based; conditions: Staphylococcus aureus; MRSA1 = SA 3202; 24 h, 37 °C
[7] = test system: methicillin-resistant S. aureus SA 630 (MRSA2); assay: MIC, microtitration broth method; format: cell-based; conditions: Staphylococcus aureus; MRSA2 = SA 630; 24 h, 37 °C
[8] = test system: methicillin-resistant S. aureus 63718 (MRSA3); assay: MIC, microtitration broth method; format: cell-based; conditions: Staphylococcus aureus; MRSA3 = 63718; 24 h, 37 °C
[9] = test system: vancomycin-resistant E. faecalis VRE 342B (VRE1); assay: MIC, microtitration broth method; format: cell-based, Enterococcus faecalis; conditions: VRE1 = VRE 342B; 24 h, 37 °C
[10] = test system: vancomycin-resistant E. faecalis VRE 368 (VRE2); assay: MIC, microtitration broth method; format: cell-based, Enterococcus faecalis; conditions: VRE2 = VRE 368; 24 h, 37 °C
[11] = test system: vancomycin-resistant E. faecalis VRE 725B (VRE3); assay: MIC, microtitration broth method; format: cell-based, Enterococcus faecalis; conditions: VRE3 = VRE 725B; 24 h, 37 °C
[12] = test system: M. smegmatis ATCC 700084; assay: In vitro antimycobacterial MIC, broth dilution micro-method; format: cell-based, Mycobacterium smegmatis; conditions: Mycolicibacterium smegmatis, ATCC700084, 72 h; MS = M. smegmatis ATCC 700084; 3 days, 37 °C
[13] = test system: Mycobacterium marinum CAMP 5644; assay: as above; format: cell-based; conditions: CAMP5644, 504 h; MM = Mycobacterium marinum CAMP 5644; 21 days, 28 °C
[14] = test system: methicillin-resistant S. aureus SA 3202 (MRSA1); assay: MBC, agar aliquot subculture method; format: cell-based; conditions: Staphylococcus aureus; MRSA1 = SA 3202
[15] = test system: methicillin-resistant S. aureus SA 630 (MRSA2); assay: MBC, agar aliquot subculture method; format: cell-based; conditions: Staphylococcus aureus; MRSA2 = SA 630
[16] = test system: methicillin-resistant S. aureus 63718 (MRSA3); assay: MBC, agar aliquot subculture method; format: cell-based; conditions: Staphylococcus aureus; MRSA3 = 63718
[17] = test system: vancomycin-resistant E. faecalis VRE 342B (VRE1); assay: MBC, agar aliquot subculture method; format: cell-based, Enterococcus faecalis; conditions: VRE1 = VRE 342B
[18] = test system: vancomycin-resistant E. faecalis VRE 368 (VRE2); assay: MBC, agar aliquot subculture method; format: cell-based, Enterococcus faecalis; conditions: VRE2 = VRE 368
[19] = test system: vancomycin-resistant E. faecalis VRE 725B (VRE3); assay: MBC, agar aliquot subculture method; format: cell-based, Enterococcus faecalis; conditions: VRE3 = VRE 725B
[20] = test system: normal human dermal fibroblasts (NHDF); assay: In vitro cell viability, WST-1 assay; format: cell-based; conditions: 72 h
Description: Compounds were evaluated for their antiproliferative activity using NHDF (normal human dermal fibroblasts, ATCC, Manassas, VA, USA). The cultured cells were kept at 37 °C and 5% CO2. The cells were seeded (1 × 10^4 cells/well/100 μL DMEM supplemented with 10% FCS and streptomycin/penicillin) into 96-well plates (Corning Inc., Corning, NY, USA). Cells were counted using a hemocytometer (Burker chamber) and phase contrast Olympus IX50 microscope equipped with Sony SSC-DC58 AP camera and Olympus DP10 digital camera. The cell viability of the compounds was determined using the Cell Proliferation Reagent WST-1 assay (Roche Molecular Biochemicals, Mannheim, Germany). The examined cells were exposed to the tested compounds (1 mg/mL DMSO stock) for 72 h at various concentrations (0.1–100 μg/mL). The control was included in order to eliminate the DMSO effect at the concentration used. Cell cultures were incubated with WST-1 (10 μL) for 1 h. The absorbance of the samples was measured against a background control at 450 nm using a microplate reader with a reference wavelength at 600 nm. The obtained results are expressed as means of at least two independent experiments performed in triplicate.

[21] = Lipophilicity by RP-TLC; format: physicochemical; conditions: Tris buffer pH 7.4/acetone, read-out: logPTLC
Description: The lipophilicity parameters were determined experimentally using reverse phase thin-layer chromatography (RP-TLC). Chromatograms were prepared on RP-18F254s plates (1.05559.0001, Merck, Germany) precoated with nonpolar silicone oil. Plates were developed in glass chromatography chambers previously saturated with vapor of mobile phase. The mobile phase was composed of 0.2M Tris buffer (pH = 7.4) and acetone in different concentrations, i.e., 50%, 60%, 70%, 80 and 90%. The chromatograms were visualised in UV light (λ = 254 nm). Determination of the RF coefficient was carried out twice for all compounds; in all cases, acetone concentrations used. The final value of RF is the mean of the two measurements. The obtained RF coefficient was used to calculate the value of the RM parameter according to the equation: RM = log [(1/RF) − 1]. By extrapolating RM values to zero acetone concentration, a relative RM0 lipophilicity parameter was obtained, according to the equation: RM = RM0 + bC, where b is slope and C is concentration of acetone in mobile phase. Based on RM0 and the calibration curve, the values of logPTLC for compounds 6a–l were determined. The calibration curve was calculated using the relationship between RM0 of the standard molecules (acetanilide, p-kresol, p-bromoacetophenone, benzophenone, anthracene) and the corresponding logP parameters specified by the extraction method, respectively. RM0 parameters of the standard molecules and quinobenzothiazine derivatives 6a–l were determined in the same empirical conditions.

Row | Compound | MIC [1] | MIC [2] | MIC [6] | MIC [7] | MIC [8] | MIC [9] | MIC [10] | MIC [11] | MIC [12] | MIC [13] | chromatographic logP [21] | MBC [3] | MBC [4] | MBC [14] | MBC [15] | MBC [16] | MBC [17] | MBC [18] | MBC [19] | IC50 [20] | further results
1 | CC1(C)S[C@@H]2[C@H](NC(=O)[C@H](N)c3ccccc3)C(=O)N2[C@H]1C(=O)O [AMP, ampicillin, reference compound] | 5.72 µM (≈ 2 µg/mL) | 2.81 µM (≈ 0.982 µg/mL) |  |  |  |  |  |  |  |  |  | 5.72 µM (≈ 2 µg/mL) | 2.81 µM (≈ 0.982 µg/mL) |  |  |  |  |  |  |  | Conc.: corresponding multiple of MBC with at least 70% inhibition of respiratory activity [5]: 16× MIC (>16× MBC); Conc.: lowest multiple of MIC with at least 70% inhibition of respiratory activity [5]: 16× MIC (>16× MBC)
2 | O=C(O)c1cn(C2CC2)c2cc(N3CCNCC3)c(F)cc2c1=O [CPX, ciprofloxacin, reference compound] |  |  |  |  |  |  |  |  |  |  |  |  |  |  |  |  |  |  |  |  | Conc.: corresponding multiple of MBC with at least 70% inhibition of respiratory activity [5]: 32× MIC (32× MBC); Conc.: lowest multiple of MIC with at least 70% inhibition of respiratory activity [5]: 32× MIC (32× MBC); S. aureus Respiration Inhibition ([5]; at the concentration given): 96.1%
3 | NNC(=O)c1ccncc1 [INH, isoniazid, reference compound] |  |  |  |  |  |  |  |  | 117 µM (≈ 16 µg/mL) | 467 µM (≈ 64 µg/mL) |  |  |  |  |  |  |  |  |  |  | 
4 | Cc1onc(-c2ccccc2)c1C(=O)N[C@@H]1C(=O)N2[C@@H]1SC(C)(C)[C@@H]2C(=O)O [OXA, oxacillin, reference compound] | 1.25 µM (≈ 0.502 µg/mL) |  | 79.8 µM (≈ 32 µg/mL) | 29.7 µM (≈ 11.9 µg/mL) | 9.9 µM (≈ 3.97 µg/mL) |  |  |  |  |  |  | 1.25 µM (≈ 0.502 µg/mL) |  | 79.8 µM (≈ 32 µg/mL) | 29.7 µM (≈ 11.9 µg/mL) | 9.9 µM (≈ 3.97 µg/mL) |  |  |  |  | 
5 | CO[C@H]1/C=C/O[C@@]2(C)Oc3c(C)c(O)c4c(O)c(c(/C=N/N5CCN(C)CC5)c(O)c4c3C2=O)NC(=O)/C(C)=C\C=C\[C@H](C)[C@H](O)[C@@H](C)[C@@H](O)[C@@H](C)[C@H](OC(C)=O)[C@@H]1C [RIF, rifampicin, reference compound] |  |  |  |  |  |  |  |  | 19.4 µM (≈ 16 µg/mL) | 2.43 µM (≈ 2 µg/mL) |  |  |  |  |  |  |  |  |  |  | 
6 | CN(C)[C@@H]1C(O)=C(C(N)=O)C(=O)[C@@]2(O)C(O)=C3C(=O)c4c(O)cccc4[C@@](C)(O)[C@H]3C[C@@H]12 [TTC, tetracycline, reference compound] | 4.52 µM (≈ 2.01 µg/mL) |  | 36.1 µM (≈ 16 µg/mL) | 36.1 µM (≈ 16 µg/mL) | > 72.1 µM |  |  |  |  |  |  |  |  |  |  |  |  |  |  |  | 
7 | COc1cccc2c1C(=O)c1c(O)c3c(c(O)c1C2=O)C[C@@](O)(C(=O)CO)C[C@@H]3O[C@H]1C[C@H](N)[C@H](O)[C@H](C)O1 [doxorubicin, reference compound] |  |  |  |  |  |  |  |  |  |  |  |  |  |  |  |  |  |  |  | 5.5 µM | 

Further lines, with some results ahead:

Row | MIC [1] | MIC [2] | MIC [6] | MIC [7] | MIC [8] | MIC [9] | MIC [10] | MIC [11] | MIC [12] | MIC [13] | chromatographic logP [21] | Compound | MBC [3] | MBC [4] | MBC [14] | MBC [15] | MBC [16] | MBC [17] | MBC [18] | MBC [19] | IC50 [20] | further results
8 | 22.3 µM | 89.1 µM | 44.6 µM | 44.6 µM | 22.3 µM | 178 µM | 178 µM | 89.1 µM | 22.3 µM | 22.3 µM | 1.99 | CCCOc1ccc2c(c1)Nc1c(c[n+](C)c3ccccc13)S2 [Compound 6b, 10-propoxy-5-methyl-12H-quino[3,4-b][1,4]benzothiazinium chloride] | 44.6 µM | 89.1 µM | 44.6 µM | 44.6 µM | 22.3 µM | 178 µM | 178 µM | 89.1 µM | 65.5 µM | 
9 | 178 µM | 178 µM | 178 µM | 178 µM | 178 µM | 178 µM | 178 µM | 89.1 µM | 44.6 µM | 44.6 µM | 1.18 | CCCOc1cccc2c1Nc1c(c[n+](C)c3ccccc13)S2 [Compound 6c, 11-propoxy-5-methyl-12H-quino[3,4-b][1,4]benzothiazinium chloride] | 178 µM | 178 µM | 178 µM | 178 µM | 178 µM | 178 µM | 178 µM | 178 µM | > 100 µM | 
10 | 44.8 µM | 44.8 µM | 44.8 µM | 89.6 µM | 44.8 µM | 44.8 µM | 44.8 µM | 22.4 µM | 22.4 µM | 11.2 µM | 2.98 | C=CCOc1ccc2c(c1)Sc1c[n+](C)c3ccccc3c1N2 [Compound 6d, 9-allyloxy-5-methyl-12H-quino[3,4-b][1,4]benzothiazinium chloride] | 44.8 µM | 44.8 µM | 44.8 µM | 89.6 µM | 44.8 µM | 44.8 µM | 44.8 µM | 44.8 µM | > 100 µM | 
11 | 359 µM | 179 µM | 359 µM | 359 µM | 179 µM | 359 µM | 359 µM | 179 µM | 89.6 µM | 44.8 µM | 2.29 | C=CCOc1cccc2c1Nc1c(c[n+](C)c3ccccc13)S2 [Compound 6f, 11-allyloxy-5-methyl-12H-quino[3,4-b][1,4]benzothiazinium chloride] | 359 µM | 359 µM | 359 µM | 359 µM | 359 µM | 359 µM | 359 µM | 179 µM | > 100 µM | 
12 | 45.1 µM | 45.1 µM | 90.1 µM | 90.1 µM | 45.1 µM | 45.1 µM | 45.1 µM | 22.5 µM | 22.5 µM | 22.5 µM | 1.74 | C#CCOc1ccc2c(c1)Nc1c(c[n+](C)c3ccccc13)S2 [Compound 6h, 10-propargyloxy-5-methyl-12H-quino[3,4-b][1,4]benzothiazinium chloride] | 45.1 µM | 45.1 µM | 90.1 µM | 90.1 µM | 45.1 µM | 45.1 µM | 45.1 µM | 22.5 µM | > 100 µM | 
